pEC50: −log10 of the molar value. Active and inactive are the calls of the source. No cut-off for these calls is given here.
Key:
A-375 [1] = assay: Antiproliferative activity against human A375 cells assessed as cell viability at 1 uM after 48 hrs by trypan blue exclusion assay; assay type: functional; details: for viability at 1 µM: A-375, 48 h, read-out: Activity
A-375 [2] = assay: Antiproliferative activity against human A375 cells assessed as cell viability at 5 uM after 48 hrs by trypan blue exclusion assay; assay type: functional; details: A-375, 48 h, read-out: Activity
A-375 [3] = assay: Antiproliferative activity against human A375 cells assessed as cell viability at 10 uM after 48 hrs by trypan blue exclusion assay; assay type: functional; details: A-375, 48 h, read-out: Activity
A-375 [4] = assay: Antiproliferative activity against human A375 cells after 48 hrs by trypan blue exclusion assay; assay type: functional, cell-based; details: A-375, 48 h
[5] = molecular target: T1, Eukaryotic translation initiation factor 2-alpha kinase 3 (Homo sapiens) (UniProt Q9NZJ5); assay: Activation of PERK in human A375 cells assessed as increase in CHOP expression at 1 to 2.5 uM after 48 hrs by Western blot analysis; assay type: cell-based
T1 sequence (whole entry): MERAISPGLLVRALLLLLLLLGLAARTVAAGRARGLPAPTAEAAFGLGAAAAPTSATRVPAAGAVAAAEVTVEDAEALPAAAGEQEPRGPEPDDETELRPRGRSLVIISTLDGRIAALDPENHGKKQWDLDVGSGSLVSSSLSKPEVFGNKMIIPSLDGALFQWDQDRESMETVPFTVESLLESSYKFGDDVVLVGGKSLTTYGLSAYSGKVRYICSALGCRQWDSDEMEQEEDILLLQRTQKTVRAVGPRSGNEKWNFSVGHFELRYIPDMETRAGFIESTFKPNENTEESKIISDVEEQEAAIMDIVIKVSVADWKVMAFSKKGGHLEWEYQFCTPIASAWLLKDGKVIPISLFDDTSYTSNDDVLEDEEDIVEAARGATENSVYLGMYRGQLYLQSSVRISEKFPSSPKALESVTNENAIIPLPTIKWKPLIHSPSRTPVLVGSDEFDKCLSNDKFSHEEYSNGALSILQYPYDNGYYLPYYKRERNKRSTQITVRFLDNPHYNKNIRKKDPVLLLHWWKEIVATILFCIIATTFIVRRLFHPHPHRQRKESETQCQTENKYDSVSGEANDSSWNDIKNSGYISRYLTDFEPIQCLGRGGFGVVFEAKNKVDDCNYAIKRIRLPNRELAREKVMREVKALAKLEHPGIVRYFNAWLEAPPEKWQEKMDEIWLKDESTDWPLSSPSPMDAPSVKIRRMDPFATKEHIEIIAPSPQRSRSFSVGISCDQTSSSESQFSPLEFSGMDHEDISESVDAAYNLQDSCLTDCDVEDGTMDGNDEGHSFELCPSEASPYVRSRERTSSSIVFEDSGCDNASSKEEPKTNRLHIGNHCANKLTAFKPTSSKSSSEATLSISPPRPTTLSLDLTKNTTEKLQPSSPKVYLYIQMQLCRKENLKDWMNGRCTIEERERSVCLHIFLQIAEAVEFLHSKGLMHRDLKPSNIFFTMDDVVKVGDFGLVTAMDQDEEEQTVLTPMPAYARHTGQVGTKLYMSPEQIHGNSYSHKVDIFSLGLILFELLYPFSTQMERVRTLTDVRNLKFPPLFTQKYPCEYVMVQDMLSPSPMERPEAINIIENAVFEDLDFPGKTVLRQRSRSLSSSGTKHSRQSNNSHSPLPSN

A-375 [6] = assay: Induction of apoptosis in human A375 cells assessed as cleavage of PARP protein at 2.5 to 10 uM after 12 hrs by Western blot analysis; assay type: functional, cell-based
[7] = molecular target: T1, Eukaryotic translation initiation factor 2-alpha kinase 3 (Homo sapiens); assay: Activation of PERK in human A375 cells at 1 to 2.5 uM after 48 hrs by Western blot analysis; assay type: cell-based
A-375 [8] = assay: Induction of autophagy in human A375 cells assessed as increase in conversion of LC3-I to LC3-II at 1 to 5 uM after 24 hrs by Western blot analysis; assay type: functional, cell-based
[9] = molecular target: T1, Eukaryotic translation initiation factor 2-alpha kinase 3 (Homo sapiens); assay: Activation of PERK in human A375 cells assessed as increase in CHOP expression at 2.5 to 10 uM after 12 hrs by Western blot analysis; assay type: cell-based
BXPC-3 = assay: Growth inhibition of human BxPC3 cells assessed as cell viability at 10 uM after 48 hrs by trypan blue exclusion assay; assay type: functional; details: BXPC-3, 48 h, read-out: Activity
[10] = Growth inhibition of human A375 R5C3 cells assessed as cell viability at 10 uM after 48 hrs by trypan blue exclusion assay; assay type: functional; details: A-375, 48 h, read-out: Activity
[11] = Growth inhibition of human A375 RIV cells assessed as cell viability at 10 uM after 48 hrs by trypan blue exclusion assay; assay type: functional; details: A-375, 48 h, read-out: Activity
A-375 [12] = assay: Induction of autophagy in human A375 cells assessed as increase in conversion of LC3-I to LC3-II at 1 to 2.5 uM after 48 hrs by Western blot analysis; assay type: functional, cell-based
A-375 [13] = assay: Induction of autophagy in human A375 cells assessed as increase in conversion of LC3-I to LC3-II at 2.5 to 10 uM after 12 hrs by Western blot analysis; assay type: functional, cell-based
MIA PaCa-2 = assay: Growth inhibition of gemcitabine-resistant human MIAPaCa2 cells assessed as cell viability at 10 uM after 48 hrs by trypan blue exclusion assay relative to control; assay type: functional; details: MIA PaCa-2, 48 h, read-out: Activity
K562 = assay: Growth inhibition of human K562 cells assessed as cell viability at 10 uM after 48 hrs by trypan blue exclusion assay; assay type: functional; details: K562, 48 h, read-out: Activity
K-562R = assay: Growth inhibition of human K562R cells assessed as cell viability at 10 uM after 48 hrs by trypan blue exclusion assay; assay type: functional; details: read-out: Activity
[14] = molecular target: T1, Eukaryotic translation initiation factor 2-alpha kinase 3 (Homo sapiens); assay: Activation of PERK in human A375 cells at 2.5 to 10 uM after 12 hrs by Western blot analysis; assay type: cell-based

Structure (SMILES)	viability at 1 µM (A-375 [1]) [%]	viability at 5 µM (A-375 [2]) [%]	viability at 10 µM (A-375 [3]) [%]	also measured
CCCCCCC#Cc1cccc(S(=O)(=O)Nc2cccc(-c3csc(NC(C)=O)n3)c2)c1	56.9	1.2	< 1	
CC(=O)Nc1nc(-c2cccc(NS(=O)(=O)c3cccc(C#C[Si](C)(C)C)c3)c2)cs1	61.6	< 1	5.8	
C#Cc1ccc(S(=O)(=O)Nc2cccc(-c3csc(NC(C)=O)n3)c2)cc1	59.2	38.3	1.2	
CCCCCCC#Cc1ccc(S(=O)(=O)Nc2cccc(-c3csc(NC(C)=O)n3)c2)cc1	40.7	12.8	5.8	
CCCCCCCCC#Cc1ccc(S(=O)(=O)Nc2cccc(-c3csc(NC(C)=O)n3)c2)cc1	39.6	8.9	< 1	
CC(=O)Nc1nc(-c2cccc(NS(=O)(=O)c3ccc(C#CCO)cc3)c2)cs1	81.3	99.3	48.8	pEC50 (A-375 [4]): 5.00
CCCCCCC#Cc1ccc(S(=O)(=O)Nc2cccc(-c3csc(NC)n3)c2)cc1	36.6	8.1	1.2	
CC(=O)Nc1nc(-c2cccc(NS(=O)(=O)c3ccc(C#CC4CCCCC4)cc3)c2)cs1	52.3	1.2	1.2	
CCCCCCC#Cc1ccc(S(=O)(=O)Nc2cccc(-c3csc(N)n3)c2)cc1	97.6	< 1	3.5	
CCCCCCC#Cc1ccc(S(=O)(=O)Nc2cccc(-c3csc(Nc4ccccc4)n3)c2)cc1	87.1	59.2	5.8	
CC(=O)Nc1nc(-c2cccc(NS(=O)(=O)c3ccc(Br)cc3)c2)cs1		19.7	25.6	Activity (A-375 [1]): inactive
CC(=O)Nc1nc(-c2cccc(NS(=O)(=O)c3ccc(C#C[Si](C)(C)C)cc3)c2)cs1	94.3	4.2	< 1	
CCCCCCCCc1ccc(S(=O)(=O)Nc2cccc(-c3csc(NC(C)=O)n3)c2)cc1	34.8	< 1	< 1	Activity [5]: Active; Activity (A-375 [6]): Active; Activity [7]: Active; Activity (A-375 [8]): Active; Activity [9]: Active; viability at 10 µM (BXPC-3): 4.9%; viability at 10 µM [10]: 1.4%; viability at 10 µM [11]: 2.6%; Activity (A-375 [12]): Active; Activity (A-375 [13]): Active; viability at 10 µM (MIA PaCa-2): 11.4%; viability at 10 µM (K562): 3.8%; viability at 10 µM (K-562R): 10.1%; Activity [14]: Active
CCCCCCc1ccc(S(=O)(=O)Nc2cccc(-c3csc(NC(C)=O)n3)c2)cc1	49.9	< 1		viability at 10 µM (BXPC-3): 5.9%; viability at 10 µM [10]: 1.4%; viability at 10 µM [11]: 3.4%; viability at 10 µM (MIA PaCa-2): 1.3%; viability at 10 µM (K562): 23.2%; viability at 10 µM (K-562R): 41.6%
CC(=O)Nc1nc(-c2cccc(NS(=O)(=O)c3cccc(Br)c3)c2)cs1		67.4	36	Activity (A-375 [1]): inactive
CC(=O)Nc1nc(-c2cccc(NS(=O)(=O)c3cccc(C#CCO)c3)c2)cs1	85.4	66.2	45.3	pEC50 (A-375 [4]): 5.00
CCCCC#Cc1ccc(S(=O)(=O)Nc2cccc(-c3csc(NC(C)=O)n3)c2)cc1	73.2	9.3	< 1	
C#Cc1cccc(S(=O)(=O)Nc2cccc(-c3csc(NC(C)=O)n3)c2)c1	74.3	29	18.6	
CC(=O)Nc1nc(-c2cccc(NS(=O)(=O)c3ccc(C#CCCc4ccccc4)cc3)c2)cs1	11.5	4.2	< 1	
CCCCCC/C=C\c1ccc(S(=O)(=O)Nc2cccc(-c3csc(NC(C)=O)n3)c2)cc1	48.8	2.3		viability at 10 µM (BXPC-3): 2%; viability at 10 µM [10]: < 1%; viability at 10 µM [11]: < 1%; viability at 10 µM (MIA PaCa-2): 11.4%; viability at 10 µM (K562): 8.9%; viability at 10 µM (K-562R): 41.1%
